# According to publication PMC7824787, “Design, Synthesis and In Vitro Investigation of Novel Basic Celastrol Carboxamides as Bio-Inspired Leishmanicidal Agents Endowed with Inhibitory Activity against Leishmania Hsp90” (Biomolecules, 2021):
# System: L. infantum promastigotes
# Assay: Morphological differentiation of Leishmania promastigotes
# Type: cell-based, Leishmania infantum
# Conditions: 50 ng/mL, 23 °C, 48 h (Figure 6)
# Description: L. infantum promastigotes were diluted in complete medium to 4 × 10^7 parasites/mL and 250 µL of the suspension were seeded into the 24 wells plates and incubated at 23 °C in the presence of geldanamycin, CE or compound 2 at the final concentration of 50 ng/mL. Cultures without drugs incubated at 23 °C or at 37 °C were used as negative and positive control, respectively. After 24 or 48 h of incubation, parasite morphology was evaluated by optical microscopy at 100× (Eclipse Ti Series, Nikon, Minato, Tokyo, Japan) on Giemsa stained smears (a mixture of eosin, methylene blue and Azure-B diluted 1:10). The percent of round promastigotes in treated and non-treated cells was determined. Images were taken at the same magnification by using a digital camera (Nikon Digital Sight). About 500 promastigotes were counted in 4 random fields.
# The compounds were incubated (23 °C, physiological pH) with L. infantum promastigotes at a sub-IC50 concentration of 50 ng/mL. […] After 24 h and 48 h the presence of round, amastigote-like cells, was monitored (Figure 6). A negative and positive control experiment (NC and PC, Figure 6a,b) were also conducted growing the promastigotes at 23 °C and 37 °C, respectively.
row,Compound,round amastigote-like cells (morphological differentiation)
1,"CC1=C(O)C(=O)C=C2C1=CC=C1[C@@]2(C)CC[C@@]2(C)[C@@H]3C[C@](C)(C(=O)O)CC[C@]3(C)CC[C@]12C [CE, celastrol]",neither CE nor compound 3 produced this effect
2,"CC1=C(O)C(=O)C=C2C1=CC=C1[C@@]2(C)CC[C@@]2(C)[C@@H]3C[C@](C)(C(=O)NCCN4CCCC4)CC[C@]3(C)CC[C@]12C [compound 3, (2R,4aS,6aS,12bR,14aS,14bR)-10-hydroxy-2,4a,6a,9,12b,14a-hexamethyl-11-oxo-N-(2-(pyrrolidin-1-yl)ethyl)-1,2,3,4,4a,5,6,6a,11,12b,13,14,14a,14b-tetradecahydropicene-2-carboxamide]",neither CE nor compound 3 produced this effect
